Test results reported in patent US11066443B2 (Hoffmann-La Roche Inc., priority 2017, dated 2021).

test system: P. aeruginosa NCTC11454; experiment: Antimicrobial susceptibility testing: 50% growth inhibitory concentration (IC50) determination; assay type: cell-based; details: Pseudomonas aeruginosa, Iso-Sensitest broth, OD 600 nm every 20 minutes over 16h, growth inhibition during logarithmic growth
Procedure: The in vitro antimicrobial activity of the compounds was alternatively determined according to the following procedure: The assay used a 10-points Iso-Sensitest broth medium to measure quantitatively the in vitro activity of the compounds against P. aeruginosa NCTC11454. Stock compounds in DMSO were serially twofold diluted (e.g. range from 50 to 0.097 μM final concentration) in 384 wells microtiter plates and inoculated with 49 μl the bacterial suspension in Iso-Sensitest medium to have a final cell concentration of ˜5×10^(5) CFU/ml in a final volume/well of 50 ul/well. Microtiter plates were incubated at 35±2° C. Bacterial cell growth was determined with the measurement of optical density at λ=600 nm each 20 minutes over a time course of 16h. Growth inhibition was calculated during the logarithmic growth of the bacterial cells with determination of the concentration inhibiting 50% (IC50) and 90% (IC90) of the growth. Table 2 provides the 50% growth inhibitory concentrations (IC50) in micromoles per liter of the compounds of present invention obtained against P. aeruginosa NCTC11454.

SMILES	IC50 [µM]
CN1C(=O)[C@H](CCCCN)NC(=O)[C@H](CCCN)NCc2ccccc2Sc2c(Cl)cc(-c3cccnc3)cc2CNC(=O)[C@@H]1Cc1c[nH]c2ccccc12 [Example 34, (12S,15S,18S)-15-(4-Amino-butyl)-18-(3-amino-propyl)-4-chloro-12-(1H-indol-3-ylmethyl)-13-methyl-6-pyridin-3-yl-2-thia-10,13,16,19-tetraaza-tricyclo[19.4.0.0*3,8*]pentacosa-1(25),3,5,7,21,23-hexaene-11,14,17-trione]	27.8
CN1C(=O)[C@H](CCCCN)NC(=O)[C@H](CCCN)NCc2cccnc2Sc2c(Cl)cc(-c3ccccc3)cc2CNC(=O)[C@@H]1Cc1c[nH]c2ccccc12 [Example 35, 11-(3-amino-propyl)-25-chloro-17-(1H-indol-3-ylmethyl)-16-methyl-23-phenyl-2-thia-4,10,13,16,19-pentaaza-tricyclo[9.4.0.0*3,8*]pentacsa-(25),3(8),4,6,21,23-hexaene-12,15,18-trione]	8.1
CN1C(=O)[C@H](CCCCN)NC(=O)[C@H](CCCN)NCc2ccccc2Sc2c(Cl)cc(Br)cc2CNC(=O)[C@@H]1Cc1c[nH]c2ccccc12 [Example 36, (12S,15S,18S)-15-(4-Amino-butyl)-18-(3-amino-propyl)-6-bromo-4-chloro-12-(1H-indol-3-ylmethyl)-13-methyl-2-thia-10,13,16,19-tetraaza-tricyclo[19.4.0.0*3,8*]pentacosa-1(25),3,5,7,21,23-hexaene-11,14,17-trione]	12.5
CN1C(=O)[C@H](CCCCN)NC(=O)[C@H](CCC(N)=O)NCc2ccccc2Sc2c(cc(-c3ccccc3)cc2C(F)(F)F)CNC(=O)[C@@H]1Cc1c[nH]c2ccccc12 [Example 38, 3-[(11S,14S,17S)-14-(4-Amino-butyl)-17-(1H-indol-3-ylmethyl)-16-methyl-12,15,18-trioxo-23-phenyl-25-trifluoromethyl-2-thia-10,13,16,19-tetraaza-tricyclo[19.4.0.0*3,8*]pentacosa-1(25),3,5,7,21,23-hexaen-11-yl]-propionamide]	14.5
CN1C(=O)[C@H](CCC(N)=O)NC(=O)[C@H](CCCN)NCc2ccccc2Sc2c(cc(-c3ccccc3)cc2C(F)(F)F)CNC(=O)[C@@H]1Cc1c[nH]c2ccccc12 [Example 39, 3-[(11S,14S,17S)-11-(3-Amino-propyl)-17-(1H-indol-3-ylmethyl)-16-methyl-12,15,18-trioxo-23-phenyl-25-trifluoromethyl-2-thia-10,13,16,19-tetraaza-tricyclo[19.4.0.0*3,8*]pentacosa-1(25),3,5,7,21,23-hexaen-14-yl]-propionamide]	23.5
CN1C(=O)[C@H](CCCCN)NC(=O)[C@H](CCCN)NCc2cccnc2Sc2c(Cl)cc(-c3ccnc(Cl)c3)cc2CNC(=O)[C@@H]1Cc1c[nH]c2ccccc12 [Example 40, (11S,14S,17S)-14-(4-Amino-butyl)-11-(3-amino-propyl)-25-chloro-23-(2-chloro-pyridin-4-yl)-17-(1H-indol-3-ylmethyl)-16-methyl-2-thia-4,10,13,16,19-pentaaza-tricyclo[19.4.0.0*3,8*]pentacosa-1(21),3,5,7,22,24-hexaene-12,15,18-trione]	25.1
CN1C(=O)[C@H](CCCCN)NC(=O)[C@H](CCCN)NCc2ccccc2Sc2c(ccc(Br)c2Cl)CNC(=O)[C@@H]1Cc1c[nH]c2ccccc12 [Example 41, (12S,15S,18S)-15-(4-Amino-butyl)-18-(3-amino-propyl)-5-bromo-4-chloro-12-(1H-indol-3-ylmethyl)-13-methyl-2-thia-10,13,16,19-tetraaza-tricyclo[19.4.0.0*3,8*]pentacosa-1(25),3,5,7,21,23-hexaene-11,14,17-trione]	6.5
CN1C(=O)[C@H](CCCCN)NC(=O)[C@H](CCCN)NCc2ccccc2Sc2c(ccc(-c3ccccc3)c2Cl)CNC(=O)[C@@H]1Cc1c[nH]c2ccccc12 [Example 42, (12S,15S,18S)-15-(4-Amino-butyl)-18-(3-amino-propyl)-4-chloro-12-(1H-indol-3-ylmethyl)-13-methyl-5-phenyl-2-thia-10,13,16,19-tetraaza-tricyclo[19.4.0.0*3,8*]pentacosa-1(25),3,5,7,21,23-hexaene-11,14,17-trione]	3.47
CN1C(=O)[C@H](CCCCN)NC(=O)[C@H](CCCN)NCc2ccccc2Sc2ncc(Cl)cc2CNC(=O)[C@@H]1Cc1c[nH]c2ccccc12 [Example 43]	22.9
Cc1[nH]c2ccccc2c1C[C@H]1C(=O)NCc2cc(-c3ccnc(Cl)c3)cc(Cl)c2Sc2ncccc2CN[C@@H](CCCN)C(=O)N[C@@H](CCCCN)C(=O)N1C [Example 44, (11S,14S,17S)-14-(4-Amino-butyl)-11-(3-amino-propyl)-25-chloro-23-(2-chloro-pyridin-4-yl)-16-methyl-17-(2-methyl-1H-indol-3-ylmethyl)-2-thia-4,10,13,16,19-pentaaza-tricyclo[19.4.0.0*3,8*]pentacosa-1(25),3(8),4,6,21,23-hexaene-12,15,18-trione]	27
CN1C(=O)[C@H](CCCCN)NC(=O)[C@H](CCCN)NCc2cccnc2Sc2c(Cl)cc(C#CCOCc3ccccc3)cc2CNC(=O)[C@@H]1Cc1c[nH]c2ccccc12 [Example 45, (11S,14S,17S)-14-(4-Amino-butyl)-11-(3-amino-propyl)-23-(3-benzyloxy-prop-1-ynyl)-25-chloro-17-(1H-indol-3-ylmethyl)-16-methyl-2-thia-4,10,13,16,19-pentaaza-tricyclo[19.4.0.0*3,8*]pentacosa-1(25),3(8),4,6,21,23-hexaene-12,15,18-trione]	6.07
CN1C(=O)[C@H](CCCCN)NC(=O)[C@H](CCCN)NCc2ccccc2Sc2nc(N3CCOCC3)ccc2CNC(=O)[C@@H]1Cc1c[nH]c2ccccc12 [Example 46]	20.3
Cc1[nH]c2ccccc2c1C[C@H]1C(=O)NCc2c(-c3ccncc3)ccc(Cl)c2Sc2ncccc2CN[C@@H](CCCN)C(=O)N[C@@H](CCCCN)C(=O)N1C [Example 47, (11S,14S,17S)-14-(4-Amino-butyl)-11-(3-amino-propyl)-25-chloro-16-methyl-17-(2-methyl-1H-indol-3-ylmethyl)-22-pyridin-4-yl-2-thia-4,10,13,16,19-pentaaza-tricyclo[19.4.0.0*3,8*]pentacosa-1(25),3(8),4,6,21,23-hexaene-12,15,18-trione]	2.75
CN1C(=O)[C@H](CCCCN)NC(=O)[C@H](CCCN)NCc2cc(Br)ccc2Sc2c(Cl)cccc2CNC(=O)[C@@H]1Cc1c[nH]c2ccccc12 [Example 48, (12S,15S,18S)-15-(4-Amino-butyl)-18-(3-amino-propyl)-23-bromo-4-chloro-12-(1H-indol-3-ylmethyl)-13-methyl-2-thia-10,13,16,19-tetraaza-tricyclo[19.4.0.0*3,8*]pentacosa-1(25),3,5,7,21,23-hexaene-11,14,17-trione]	14.2
CN1C(=O)[C@H](CCCCN)NC(=O)[C@H](CCCN)NCc2cc(-c3ccccc3)ccc2Sc2c(Cl)cccc2CNC(=O)[C@@H]1Cc1c[nH]c2ccccc12 [Example 49, (12S,15S,18S)-15-(4-Amino-butyl)-18-(3-amino-propyl)-4-chloro-12-(1H-indol-3-ylmethyl)-13-methyl-23-phenyl-2-thia-10,13,16,19-tetraaza-tricyclo[19.4.0.0*3,8*]pentacosa-1(25),3,5,7,21,23-hexaene-11,14,17-trione]	10.8
CN1C(=O)[C@H](CCCCN)NC(=O)[C@H](CCCN)NCc2cc(-c3ccc(CN)cc3)ccc2Sc2c(Cl)cccc2CNC(=O)[C@@H]1Cc1c[nH]c2ccccc12 [Example 50, (12S,15S,18S)-15-(4-Amino-butyl)-23-(4-aminomethyl-phenyl)-18-(3-amino-propyl)-4-chloro-12-(1H-indol-3-ylmethyl)-13-methyl-2-thia-10,13,16,19-tetraaza-tricyclo[19.4.0.0*3,8*]pentacosa-1(25),3,5,7,21,23-hexaene-11,14,17-trione]	8.47
CN1C(=O)[C@H](CCCCN)NC(=O)[C@H](CCCN)NCc2ccc(Br)cc2Sc2c(Cl)cccc2CNC(=O)[C@@H]1Cc1c[nH]c2ccccc12 [Example 51, (12S,15S,18S)-15-(4-Amino-butyl)-18-(3-amino-propyl)-24-bromo-4-chloro-12-(1H-indol-3-ylmethyl)-13-methyl-2-thia-10,13,16,19-tetraaza-tricyclo[19.4.0.0*3,8*]pentacosa-1(25),3,5,7,21,23-hexaene-11,14,17-trione]	12.3
CN1C(=O)[C@H](CCCCN)NC(=O)[C@H](CCCN)NCc2ccc(-c3ccccc3)cc2Sc2c(Cl)cccc2CNC(=O)[C@@H]1Cc1c[nH]c2ccccc12 [Example 52, (12S,15S,18S)-15-(4-Amino-butyl)-18-(3-amino-propyl)-4-chloro-12-(1H-indol-3-ylmethyl)-13-methyl-24-phenyl-2-thia-10,13,16,19-tetraaza-tricyclo[19.4.0.0*3,8*]pentacosa-1(25),3,5,7,21,23-hexaene-11,14,17-trione]	11.6
CN1C(=O)[C@H](CCCCN)NC(=O)[C@H](CCCN)NCc2cccnc2Sc2c(Cl)ccc(-c3cccc(CCN)c3)c2CNC(=O)[C@@H]1Cc1c[nH]c2ccccc12 [Example 54, (11S,14S,17S)-14-(4-Amino-butyl)-22-[3-(2-amino-ethyl)-phenyl]-11-(3-amino-propyl)-25-chloro-17-(1H-indol-3-ylmethyl)-16-methyl-2-thia-4,10,13,16,19-pentaaza-tricyclo[19.4.0.0*3,8*]pentacosa-1(25),3(8),4,6,21,23-hexaene-12,15,18-trione]	29.1
